Measurements as given in PubChem BioAssay AID330 (DTP/NCI, 2004).
“And” between values parts separate entries of the source, which are not always exact repeats. Equal values may be shown once. Inconclusive results and toxic doses are left out. The calls were made as follows: active = survival T/C of 150% or more; inactive = T/C below 125% in these data.

System: P388 leukemia ip, CD2F1 mice, survival T/C
Experiment: NCI In Vivo Anticancer Drug Screen. Data for tumor model P388 Leukemia (intraperitoneal) in CD2F1 (CDF1) mice
Conditions: endpoint: median survival time, higher = longer survival
Procedure, shortened: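 Mice carrying the transplanted tumor received test compound or vehicle. Survival was recorded in each group, and the value is the treated-group measurement divided by that of the vehicle-treated control group.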

[1] = dose: 50.0 mg/kg/injection, schedule: Q01DX009 (ip), vehicle: saline with Tween-80
[2] = dose: 100.0 mg/kg/injection, schedule: Q01DX009 (ip), vehicle: saline with Tween-80
[3] = dose: 200.0 mg/kg/injection, schedule: Q01DX009 (ip), vehicle: saline with Tween-80
[4] = dose: 50.0 mg/kg/injection, schedule: Q01DX009 (ip), vehicle: Klucel (hydroxypropylcellulose) (HPC)
[5] = dose: 100.0 mg/kg/injection, schedule: Q01DX009 (ip), vehicle: Klucel (hydroxypropylcellulose) (HPC)
[6] = dose: 200.0 mg/kg/injection, schedule: Q01DX009 (ip), vehicle: Klucel (hydroxypropylcellulose) (HPC)

Measured: T/C

COc1cccc(OC)c1N
inactive: [1] 108 % of control | [2] 108 % of control | [3] 92 % of control | dose: 400.0 mg/kg/injection, schedule: Q01DX009 (ip), vehicle: saline with Tween-80 90 % of control

O=CNc1ccc2c3c(cccc13)-c1ccccc1-2
inactive: dose: 50.0 mg/kg/injection, schedule: Q01DX005 (ip), vehicle: Klucel (hydroxypropylcellulose) (HPC) 89 % of control | dose: 100.0 mg/kg/injection, schedule: Q01DX005 (ip), vehicle: Klucel (hydroxypropylcellulose) (HPC) 97 % of control | dose: 200.0 mg/kg/injection, schedule: Q01DX005 (ip), vehicle: Klucel (hydroxypropylcellulose) (HPC) 100 % of control

O=C(OCCCN1CCCC1)C(c1ccccc1)C1C=CCC1 (centres undefined)
inactive: dose: 6.25 mg/kg/injection, schedule: Q01DX009 (ip), vehicle: Klucel (hydroxypropylcellulose) (HPC) 100 % of control | dose: 12.5 mg/kg/injection, schedule: Q01DX009 (ip), vehicle: Klucel (hydroxypropylcellulose) (HPC) 98 % of control | dose: 25.0 mg/kg/injection, schedule: Q01DX009 (ip), vehicle: Klucel (hydroxypropylcellulose) (HPC) 100 % of control | [4] 101 % of control | [5] 95 % of control | [6] 100 % of control | dose: 400.0 mg/kg/injection, schedule: Q01DX009 (ip), vehicle: Klucel (hydroxypropylcellulose) (HPC) 100 % of control

COC(=O)C1CC(I)C2OC(=O)C1C2C(=O)OC (centres undefined)
inactive: dose: 60.0 mg/kg/injection, schedule: Q01DX005 (ip), vehicle: saline with Tween-80 91 % of control | dose: 120.0 mg/kg/injection, schedule: Q01DX005 (ip), vehicle: saline with Tween-80 99 % of control | dose: 240.0 mg/kg/injection, schedule: Q01DX005 (ip), vehicle: saline with Tween-80 97 % of control

O/N=C/c1c(-c2ccccc2)nc2sccn12
inactive: dose: 100.0 mg/kg/injection, schedule: Q01DX001 (ip), vehicle: Klucel (hydroxypropylcellulose) (HPC) 94 % of control | dose: 200.0 mg/kg/injection, schedule: Q01DX001 (ip), vehicle: Klucel (hydroxypropylcellulose) (HPC) 86 % of control | dose: 400.0 mg/kg/injection, schedule: Q01DX001 (ip), vehicle: Klucel (hydroxypropylcellulose) (HPC) 94 % of control

CN1CCS(=O)(=O)C2CCCCC2C1=O (centres undefined)
inactive: [1] 96 % of control | [2] 104 % of control | [3] 96 % of control

[Mn]=[Se]
inactive: dose: 7.5 mg/kg/injection, schedule: Q01DX005 (ip), vehicle: other 101 % of control | dose: 15.0 mg/kg/injection, schedule: Q01DX005 (ip), vehicle: other 100 % of control and 103 % of control | dose: 30.0 mg/kg/injection, schedule: Q01DX005 (ip), vehicle: other 103 % of control and 94 % of control | dose: 60.0 mg/kg/injection, schedule: Q01DX005 (ip), vehicle: acid diluted with saline 110 % of control | dose: 60.0 mg/kg/injection, schedule: Q01DX005 (ip), vehicle: other 100 % of control

C=C(CN1CCN(C)CC1)C(=O)c1ccccc1
inactive: dose: 1.89 mg/kg/injection, schedule: Q01DX005 (ip), vehicle: saline 113 % of control | dose: 3.75 mg/kg/injection, schedule: Q01DX005 (ip), vehicle: saline 116 % of control | dose: 7.5 mg/kg/injection, schedule: Q01DX005 (ip), vehicle: saline 105 % of control and 112 % of control

O=C(c1ccccc1)C1OC1C(=O)c1ccccc1 (centres undefined)
inactive: [4] 95 % of control | [5] 100 % of control | [6] 102 % of control

O=C1Nc2ccccc2C12Nc1ccccc1N2
inactive: dose: 25.0 mg/kg/injection, schedule: Q04DX003 (ip), vehicle: Klucel (hydroxypropylcellulose) (HPC) 108 % of control | dose: 50.0 mg/kg/injection, schedule: Q04DX003 (ip), vehicle: Klucel (hydroxypropylcellulose) (HPC) 95 % of control | dose: 100.0 mg/kg/injection, schedule: Q04DX003 (ip), vehicle: Klucel (hydroxypropylcellulose) (HPC) 97 % of control | dose: 200.0 mg/kg/injection, schedule: Q04DX003 (ip), vehicle: Klucel (hydroxypropylcellulose) (HPC) 90 % of control and 91 % of control

CC(=O)c1ccc(NN=NCCF)cc1
active: dose: 6.25 mg/kg/injection, schedule: Q01DX009 (ip), vehicle: water 154 % of control | dose: 12.5 mg/kg/injection, schedule: Q01DX009 (ip), vehicle: distilled water + Tween-80 271 % of control
inactive: dose: 1.56 mg/kg/injection, schedule: Q01DX009 (ip), vehicle: water 107 % of control

O=C(N/N=C/c1ccc(F)cc1)c1ccncc1
inactive: [1] 91 % of control | [2] 92 % of control | [3] 90 % of control
